Marks after values point to notes of the source that are not given here.
Columns and labels:
[1] = tested on: anti-KLH IgG; experiment: ELISA for anti-KLH IgG titer in serum of KLH-immunized rats (rat KLH-TDAR model); format: in vivo, F344 rats; conditions: for Anti-KLH IgG titer: twice weekly for 4 weeks, serum, mean ± SE (n = 10)
Experimental: (§1) F344 rats (male, 7 weeks old) were immunized with KLH plus adjuvant twice at day 0 and day 14. From 8 days after last immunization, rats were administered with vehicle or compound (I) (0.3 mpk, i.v. or 1.5 mpk, p.o.) twice weekly for 4 weeks, then the rats were sacrificed and serum, spleen and bone marrow were collected. All study protocols were approved by TAKEDA Animal Care and Use Committee.
Serum was stored at −80° C. until use. Anti-KLH IgG titer in serum was measured by ELISA (KLH rat IgG ELISA kit, Shibayagi).
(§2) Data represent mean values+s.e.m. (n=10). Student t test was used for statistical analysis (*p<0.05, **p<0.01 vs. control).

[2] = tested on: anti-KLH antibody producing cells; experiment: ELISpot assay of anti-KLH IgG-secreting cells from spleen and bone marrow of KLH-immunized rats; format: in vivo, F344 rats; conditions: for The number of anti-KLH IgG-secreting cells, bone marrow / The number of anti-KLH IgG-secreting cells, Spleen: twice weekly for 4 weeks, mean ± SE (n = 10)
Experimental: as §1
Splenocytes and bone marrow cells were collected from spleen and bone marrow. The cells were cultured for 2 hours on 96 well plate pre-coated with KLH (Sigma, H7017-20 MG), then after washing with PBS, the plates were incubated with goat anti-rat IgG, HRP conjugate (Millipore, AP136P) for 1 hour. Anti-KLH antibody producing cells were visualized by adding TMB substrate and the number of anti-KLH antibody producing cells were counted by ELISpot reader system (AID).
as §2

SMILES: CC(C)C[C@H](NC(=O)CNC(=O)c1cc(Cl)ccc1Cl)B(O)O [Compound (I), [(1R)-1-({[(2,5-dichlorobenzoyl)amino]acetyl}amino)-3-methylbutyl]boronic acid]
- Anti-KLH IgG titer ([1]; 0.3 mpk, iv): 509.5 ± 54.4*
- Anti-KLH IgG titer ([1]; 1.5 mpk, po): 545.8 ± 67.0*
- effect on anti-KLH IgG titer (in words) ([1]; four weeks treatment, 0.3 mpk, i.v. or 1.5 mpk, p.o.): significantly suppressed the anti-KLH IgG titer
- The number of anti-KLH IgG-secreting cells, bone marrow ([2]; 0.3 mpk, iv): 103.9 ± 16.9** /3 × 10^5cells
- The number of anti-KLH IgG-secreting cells, Spleen ([2]; 0.3 mpk, iv): 37.0 ± 6.8** /1 × 10^6cells
- The number of anti-KLH IgG-secreting cells, bone marrow ([2]; 1.5 mpk, po): 156.4 ± 32.0 /3 × 10^5cells
- The number of anti-KLH IgG-secreting cells, Spleen ([2]; 1.5 mpk, po): 50.1 ± 12.2* /1 × 10^6cells
- effect on the number of anti-KLH IgG-producing cells in spleen and bone marrow (in words) ([2]; four weeks treatment, 0.3 mpk, i.v. or 1.5 mpk, p.o., ELISpot): suppressed the number of anti-KLH IgG-producing cells in spleen and bone marrow

Source: patent US20160250238A1, “Method for the Prophylaxis or Treatment of Systemic Lupus Erythematosus and/or Lupus Nephritis” (MILLENNIUM PHARMACEUTICALS, INC., priority 2013, published 2016)
